Experimental findings from ChEMBL document CHEMBL1201862, “PubChem BioAssay data set” (2004) are described below.

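96-well plates; 48 h exposure; 5 concentrations. Endpoints by linear interpolation between flanking doses. Not reached: highest tested concentration assigned. GI50 = concentration required for 50% inhibition of growth.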 The source made the active and inactive calls. Cut-off read from the data, not from the text of the source: active = GI50 up to about 1.1 µM and inactive = higher.

Some test systems named below: A498; ACHN; CAKI-1; DU-145; EKVX; HCT-116; MCF7; MDA-MB-435; MOLT-4; NCI-H226; OVCAR-3; OVCAR-4; SK-MEL-28; SK-MEL-2; SK-MEL-5; SK-OV-3; TK-10; UACC-257; 786-0; PC-3.
Common to all, as to assay: inhibition of tumour cell growth, NCI panel, 48 h

In the case of `Cc1c(-c2ccccc2)[nH]c2cc(Cl)ccc2c1=O`, the GI50 in the test with A498 was > 100 µM (inactive); in the test on ACHN, 55.8 µM (inactive); in the test on CAKI-1, 29.2 µM (inactive); in the test with DU-145 it was > 100 µM (inactive); with EKVX, > 100 µM (inactive); with HCT-116 it was 23.8 µM (inactive). Further, the GI50 in the test on MCF7 was 37 µM (inactive); in the test on MDA-MB-435, 12 µM (inactive); with MOLT-4 it was > 100 µM (inactive); in the test with NCI-H226 it was 21.1 µM (inactive); in the test on OVCAR-3, 56.9 µM (inactive); in the test with OVCAR-4, 22.9 µM (inactive). Also, the GI50 with SK-MEL-28 was 71.9 µM (inactive); in the test with SK-MEL-2 it was 37.8 µM (inactive); in the test with SK-MEL-5 it was 35.1 µM (inactive); in the test on SK-OV-3, 39.4 µM (inactive); with TK-10, 38 µM (inactive); in the test on UACC-257, 49.2 µM (inactive).
For the molecule `c1cc2c(s1)-c1sccc1C21OCCO1`, the GI50 with 786-0 was > 100 µM (inactive); in the test on ACHN, > 100 µM (inactive); with CAKI-1, > 100 µM (inactive); with DU-145, > 100 µM (inactive); in the test with EKVX, > 100 µM (inactive); in the test with HCT-116 it was 58.9 µM (inactive). The GI50 in the test on MCF7 is 49.9 µM (inactive); in the test with MDA-MB-435, > 100 µM (inactive); with MOLT-4 it was > 100 µM (inactive); in the test with NCI-H226 it was > 100 µM (inactive); in the test on OVCAR-3, > 100 µM (inactive); with OVCAR-4, > 100 µM (inactive). Also, the GI50 in the test with SK-MEL-28 was > 100 µM (inactive); with SK-MEL-2, 60 µM (inactive); with SK-MEL-5, 53.5 µM (inactive); in the test on TK-10 it was > 100 µM (inactive); in the test with UACC-257, 45.6 µM (inactive).
With `COc1ccc(C2C=C(c3ccc(C)cc3)N(c3ccc(OC)cc3[N+](=O)[O-])C3C(=O)OC(=O)C23)c(OC)c1` (stereo not drawn), the GI50 in the test on 786-0 was 30.8 µM (inactive); in the test with A498 it was 67 µM (inactive); in the test on ACHN, 16 µM (inactive); in the test on CAKI-1, 37.3 µM (inactive); with EKVX it was 28.2 µM (inactive); in the test on HCT-116, 28.2 µM (inactive). Further, the GI50 with MCF7 is 42.5 µM (inactive); in the test with MDA-MB-435 it was 44.3 µM (inactive); in the test with MOLT-4, 32.6 µM (inactive); in the test with NCI-H226, 31.5 µM (inactive); in the test with OVCAR-3, 20.2 µM (inactive); in the test with OVCAR-4 it was 62.5 µM (inactive). The GI50 in the test with PC-3 was 42.4 µM (inactive); with SK-MEL-28, > 100 µM (inactive); in the test with SK-MEL-2 it was 24 µM (inactive); in the test with SK-MEL-5 it was 64.6 µM (inactive); in the test with SK-OV-3, 25 µM (inactive); with TK-10 it was 47.5 µM (inactive). In the test on UACC-257, the GI50 is 77.6 µM (inactive).
Consider `O=C(O)COc1ccc(C(=O)/C(SS/C(C(=O)c2ccc(OCC(=O)O)c(Cl)c2Cl)=C2\C=C(c3ccc(Br)cc3)SS2)=C2/C=C(c3ccc(Br)cc3)SS2)c(Cl)c1Cl`, for which the GI50 was 3.87 µM (inactive) in the test on 786-0; 18.2 µM (inactive) in the test on A498; 4.58 µM (inactive) with ACHN; 13.6 µM (inactive) in the test on CAKI-1; 16.8 µM (inactive) in the test on DU-145; 28 µM (inactive) in the test on EKVX. In addition, the GI50 in the test with HCT-116 is 3.9 µM (inactive); in the test on MCF7, 0.0513 µM (active); in the test on MDA-MB-435 it was 30.3 µM (inactive); with MOLT-4, 3.44 µM (inactive); in the test on NCI-H226 it was 6.81 µM (inactive); in the test with OVCAR-3, 3.73 µM (inactive). The GI50 is 4.51 µM (inactive) with OVCAR-4; 24.8 µM (inactive) in the test with SK-MEL-28; 6.61 µM (inactive) with SK-MEL-2; 11.9 µM (inactive) in the test on SK-MEL-5; 21.3 µM (inactive) in the test with SK-OV-3; 26.7 µM (inactive) with TK-10. For the same molecule, the GI50 in the test on UACC-257 is 25.3 µM (inactive).
As for `CN1CCN(c2ccc3c(c2)NCC(=O)N3)CC1`, the GI50 with 786-0 is > 100 µM (inactive); in the test with A498, > 100 µM (inactive); with ACHN, > 100 µM (inactive); in the test with CAKI-1, > 100 µM (inactive); with DU-145, > 100 µM (inactive); in the test on EKVX, 96.4 µM (inactive). In addition, the GI50 with HCT-116, in the test with MDA-MB-435, with MOLT-4, with NCI-H226, in the test with OVCAR-3 and in the test on OVCAR-4 was > 100 µM (inactive) throughout. Further, the GI50 in the test with PC-3, in the test on SK-MEL-28, with SK-MEL-2, in the test on SK-MEL-5, in the test with SK-OV-3 and in the test with TK-10 was > 100 µM (inactive) in each case. The GI50 with UACC-257 was > 100 µM (inactive).
With `C=C1C(=O)O[C@H]2C/C(C=O)=C\[C@H]3O[C@H]3/C(COC(=O)C(C)C)=C/CC12` (stereo partly drawn), the GI50 with 786-0 is 2.9 µM (inactive); in the test with ACHN, 2.32 µM (inactive); in the test on CAKI-1, 2.65 µM (inactive); in the test with DU-145, 11.1 µM (inactive); in the test with EKVX it was 16.3 µM (inactive); in the test with HCT-116, 3.05 µM (inactive). For the same molecule, the GI50 in the test on MCF7 is 5.21 µM (inactive); in the test with MDA-MB-435, 4.25 µM (inactive); in the test with MOLT-4 it was 3.06 µM (inactive); in the test on NCI-H226, 21.4 µM (inactive); with OVCAR-3, 6.49 µM (inactive); in the test on PC-3 it was 1.85 µM (inactive). In addition, the GI50 in the test on SK-MEL-28 is 3.3 µM (inactive); with SK-MEL-5 it was 9.42 µM (inactive); in the test on TK-10, 11.8 µM (inactive); in the test with UACC-257, 11.1 µM (inactive).
For `CCCCC[C@H]1CCCCCCCCCC(=O)OC2C(O[C@@H]3OC(C)[C@H](OC(=O)[C@@H](C)CC)C(O[C@@H]4OC(C)[C@H](O)C(O)[C@@H]4O)[C@@H]3OC(=O)[C@H](C)CC)[C@H](OC3C(O)[C@@H](O)C(C)O[C@H]3O1)OC(CO)[C@H]2O` (stereo partly drawn), the GI50 is 17.4 µM (inactive) with 786-0; > 10 µM (inactive) in the test on ACHN; 17.3 µM (inactive) with CAKI-1; 16.2 µM (inactive) in the test on DU-145; 19.2 µM (inactive) in the test on EKVX; 16.1 µM (inactive) in the test on HCT-116. Further, the GI50 in the test with MCF7 is 17.3 µM (inactive); with MOLT-4, 15.6 µM (inactive); with OVCAR-3, 17.9 µM (inactive); in the test with OVCAR-4, 19.2 µM (inactive); in the test on PC-3, 16.2 µM (inactive); in the test on SK-MEL-28 it was 16.1 µM (inactive). In addition, the GI50 in the test with SK-MEL-2 was 16.4 µM (inactive); with SK-MEL-5 it was 17.1 µM (inactive); in the test on SK-OV-3, 15.6 µM (inactive); with TK-10, 20.1 µM (inactive); in the test on UACC-257, 15.8 µM (inactive).
As for `C=C1C(=O)O[C@H]2C1C[C@H](O)[C@@]1(C)OC1CC[C@@]1(C)O[C@H]21` (stereo partly drawn), the GI50 was 21 µM (inactive) in the test on 786-0; 18.1 µM (inactive) in the test with ACHN; 17.7 µM (inactive) in the test with CAKI-1; 34.5 µM (inactive) with DU-145; 18.2 µM (inactive) with EKVX; 16.6 µM (inactive) in the test with HCT-116. For the same molecule, the GI50 was 15.4 µM (inactive) in the test on MCF7; 23.5 µM (inactive) in the test on MDA-MB-435; 10.1 µM (inactive) in the test with MOLT-4; 13.6 µM (inactive) in the test on OVCAR-4; 17.8 µM (inactive) in the test with PC-3; 19.4 µM (inactive) in the test with SK-MEL-28. For the same molecule, the GI50 in the test on SK-MEL-2 was 26.5 µM (inactive); in the test on SK-MEL-5, 20.4 µM (inactive); in the test on SK-OV-3, 61.8 µM (inactive); with TK-10, 19.8 µM (inactive); with UACC-257, 18.1 µM (inactive).
For `N#C/C(=C\c1cc(F)cc(F)c1)c1ccccn1`, the GI50 in the test on 786-0 is > 10 µM (inactive); with ACHN, 30.6 µM (inactive); with CAKI-1 it was 39.5 µM (inactive); in the test with DU-145 it was 36.9 µM (inactive); with EKVX, 13 µM (inactive); with HCT-116, 27.9 µM (inactive). The GI50 in the test with MCF7 is 26.9 µM (inactive); in the test with MOLT-4 it was 13.7 µM (inactive); with NCI-H226, 17.5 µM (inactive); with OVCAR-3 it was 36.1 µM (inactive); with OVCAR-4, 45.8 µM (inactive); with PC-3, 24.3 µM (inactive). For the same molecule, the GI50 is 47 µM (inactive) with SK-MEL-28; 22.9 µM (inactive) in the test on SK-MEL-2; 13.3 µM (inactive) in the test with SK-MEL-5; 61.8 µM (inactive) with SK-OV-3; 30.8 µM (inactive) in the test with TK-10; 32.1 µM (inactive) in the test on UACC-257.
Turning to `NC(CCCCCP(=O)(O)O)C(=O)O` (stereo not drawn) [AP-7], the GI50 in the test on ACHN, in the test on CAKI-1, in the test with DU-145, in the test with EKVX, with HCT-116 and in the test on MDA-MB-435 was > 100 µM (inactive) throughout. Further, the GI50 with MOLT-4, with OVCAR-3, with OVCAR-4, in the test with PC-3, in the test on SK-MEL-28 and with SK-MEL-2 was > 100 µM (inactive) in each case. The GI50 in the test with SK-MEL-5, with SK-OV-3, in the test on TK-10 and with UACC-257 was > 100 µM (inactive) each time.
On to `Nc1ccccc1NC(=O)c1ccc(CNC(=O)OCc2cccnc2)cc1` [ENTINOSTAT], for which the GI50 is 3.35 µM (inactive) with 786-0; 0.429 µM (active) in the test on A498; 1.88 µM (inactive) in the test on ACHN; 0.805 µM (active) in the test with DU-145; 1.72 µM (inactive) in the test with EKVX; 0.415 µM (active) in the test on HCT-116. The GI50 is 0.845 µM (active) with MCF7; 0.557 µM (active) in the test on MOLT-4; 0.501 µM (active) with NCI-H226; 1.51 µM (inactive) in the test with OVCAR-3; 2.88 µM (inactive) in the test on PC-3; 1.97 µM (inactive) in the test on SK-MEL-28. In addition, the GI50 in the test with SK-MEL-2 was 0.424 µM (active); with SK-MEL-5 it was 0.624 µM (active); with SK-OV-3, 4.9 µM (inactive); in the test with TK-10, 0.92 µM (active); in the test with UACC-257, 1.59 µM (inactive).
